Source: ChEMBL document CHEMBL5352486, “Design, synthesis, in vitro - In vivo biological evaluation of novel thiazolopyrimidine compounds as antileishmanial agent with PTR1 inhibition” (Eur J Med Chem, 2023)
Values after ≈ are worked out from the molar mass of the structure shown.

Legend:
[1] = system: DHFR (human) versus PTR1 (Leishmania major); test: Selectivity index, ratio of IC50 for human DHFR to IC50 for Leishmania major PTR1; format: toxicity; conditions: human DHFR enzyme and Leishmania major PTR1 enzyme, read-out: Ratio IC50
Leishmania infantum [2] = test: Antileishmanial activity against Leishmania infantum MHOM/TN/1980/IPT1 incubated for 48 hrs by XTT method; format: functional, organism-based; conditions: MHOM/TN/1980/IPT1, 48 h
Leishmania tropica [3] = test: Antileishmanial activity against Leishmania tropica MHOM/A7/1974/SAF-K27 incubated for 48 hrs by XTT method; format: functional, organism-based; conditions: MHOM/A7/1974/SAF-K27, 48 h
Leishmania infantum [4] = test: Antileishmanial activity against Leishmania infantum MHOM/TN/1980/IPT1 incubated for 48 hrs by Neubauer hemocytometer analysis; format: functional, organism-based; conditions: MHOM/TN/1980/IPT1, 48 h
[5] = (§1) Cytotoxicity against mouse RAW264.7 cells by alamar blue method; format: toxicity, cell-based; conditions: mouse, RAW264.7 cells
RAW264.7 = test: as §1; format: toxicity, cell-based; conditions: raw264.7
Dihydrofolate reductase = target: T1, Dihydrofolate reductase (Homo sapiens, UniProt P00374); test: Inhibition of human DHFR using dihydrofolate as substrate in presence of NADPH; format: toxicity
T1 sequence (P00374 whole entry): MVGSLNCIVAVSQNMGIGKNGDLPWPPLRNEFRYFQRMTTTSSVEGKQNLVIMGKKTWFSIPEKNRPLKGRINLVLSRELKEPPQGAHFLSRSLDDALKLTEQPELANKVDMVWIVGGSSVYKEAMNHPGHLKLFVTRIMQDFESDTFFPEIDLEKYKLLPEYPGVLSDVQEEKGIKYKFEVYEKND

Pteridine reductase 1 = target: T2, Pteridine reductase 1 (Leishmania major, UniProt Q01782); test: Inhibition of recombinant Leishmania major PTR1 expressed in Escherichia coli BL21 using folic acid as substrate in presence of NADPH
T2 sequence (Q01782 whole entry): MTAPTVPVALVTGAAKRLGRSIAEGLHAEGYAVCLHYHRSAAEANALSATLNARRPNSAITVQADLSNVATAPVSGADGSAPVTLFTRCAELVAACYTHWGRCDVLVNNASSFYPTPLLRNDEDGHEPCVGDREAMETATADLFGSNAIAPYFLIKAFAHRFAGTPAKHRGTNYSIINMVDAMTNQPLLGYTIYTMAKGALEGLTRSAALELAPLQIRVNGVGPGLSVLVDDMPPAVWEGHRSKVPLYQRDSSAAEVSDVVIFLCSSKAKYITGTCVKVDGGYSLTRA

Leishmania tropica [6] = test: Antileishmanial activity against Leishmania tropica MHOM/A7/1974/SAF-K27 incubated for 48 hrs by Neubauer hemocytometer analysis; format: functional, organism-based; conditions: MHOM/A7/1974/SAF-K27, 48 h
[7] = (§2) Cytotoxicity against mouse L929 cells by alamar blue method; format: toxicity, cell-based; conditions: mouse, L929 cells
L929 = test: as §2; format: toxicity, cell-based; conditions: l929

Work on `O=C(Nc1nc2cnc(N3CCCC3)nc2s1)c1ccc(Cl)c([N+](=O)[O-])c1` yielded a selectivity ratio [1] of 25.1, an IC50 (Leishmania infantum [2]) of 12.7 µg/mL (≈ 31.3 µM) and an IC50 (Leishmania tropica [3]) of 10.6 µg/mL (≈ 26.2 µM). For the same molecule, the IC50 (Leishmania infantum [4]) was 12.3 µg/mL (≈ 30.3 µM), the IC50 [5] was 8.98 µg/mL (≈ 22.2 µM) and the “log10 IC50 (µg/mL)” value (RAW264.7) was 0.95. It also gave an IC50 (Dihydrofolate reductase) of 373 µM, an IC50 (Pteridine reductase 1) of 14.9 µM and an IC50 (Leishmania tropica [6]) of 10.2 µg/mL (≈ 25.1 µM). For the same molecule, the IC50 [7] was 24.4 µg/mL (≈ 60.2 µM) and the “log10 IC50 (µg/mL)” value (L929) was 1.39.
